Experimental data: paper PMC7145288, “New Peptide-Based Pharmacophore Activates 20S Proteasome” (Molecules, 2020)
Square brackets hold non-standard residues; d marks the D form. Peptide text beside a SMILES is read from it. Oic = O=C(O)[C@@H]1C[C@@H]2CCCC[C@@H]2N1; dOic = O=C(O)[C@H]1C[C@H]2CCCC[C@H]2N1; Tic = O=C(O)[C@@H]1Cc2ccccc2CN1

What was measured:
[1] = system: proteasome ChT-L activity in SK-N-SH (ATCC HTB-11) cell lysates; assay: ChT-L proteasome activity in lysates of treated SK-N-SH cells; format: cell-based, human
Description: […] The content of live cells was determined by the Trypan Blue-exclusion assay. The cells were harvested, washed twice in PBS, resuspended in dilution buffer (see above) and stored in −80 °C. To prepare lysates the thawed preparations were vortexed with glass beads and centrifuged for 5 min 5000× g (4 °C). The supernatant was centrifuged for 20 min 14,000× g (4 °C). The resulting supernatant—“crude lysate” was diluted to 1 mg/mL of total protein with dilution buffer. 1 μg of lysate per assay (reaction buffer: 50 mM Tris/HCl pH 8, 0.1 mM MgCl2, 0.2 mM ATP, 0.1 mM dithiothreitol, 50 μM Suc-LLVY-AMC) was used for determination of ChT-L activity in a 96-well format, as above.

[2] = system: 20S core proteasome α face pockets; assay: Competition with Rpt C-terminal tail peptides for α face pockets (ChT-L activity); format: biochemical, human; conditions: Rpt peptide 1 μM added before TAT peptide; for Competition with Rpt tail peptides (in words, from radar plot scores): Rpt2 α3/α4, Rpt3 α1/α2, Rpt5 α5/α6, Rpt6 α2/α3 pocket, three to six experiments; for Enhanced (synergistic) activation with Rpt tail peptides (in words): Rpt5 or Rpt6 tails
From the text: As mentioned above, the binding pockets on the α face accept “anchors” from natural protein ligands of the 20S core. […] The 10-residue Rpt-derived C-terminal “tail” peptides (“Rpt peptides”) can be used as competitors with the Rpt subunits or with small allosteric ligands. Importantly, the Rpt peptides interject between the subunits with their C-termini, whereas TAT peptides, according to the modeling, use their N-termini for this purpose. To test the specificity of interactions between TAT compounds and the α face, we performed competition experiments. The 20S core was challenged with selected TAT compounds after treatment with Rpt peptides. We selected peptides of Rpt2 ([…]), Rpt3 ([…]), Rpt5 ([…]) and Rpt6 […]) subunits, docking in α3/α4, α1/α2, α5/α6 and α2/α3 pockets, respectively. Tails of Rpt2, 3, and 5 display the canonical HbYX motif, whereas the LeuTrpLys C-terminus of Rpt6 may be considered “pseudo-HbYX”, with a bulky Trp replacing Tyr. Results of the competition experiments are presented as radar plots in Figure 7. […] This pocket also emerged as the major binding site for (1) and (8). However, these compounds likely weakly competed with the Rpt2 tail for binding to the α3/α4 pocket as well. The α3/α4 pocket seemed to be favored by (6). […] These complex patterns point at the importance of allosteric effects between the α face ligands, the gate and the catalytic chamber.
Figure 7 TAT1 derivatives competed with selected C-terminal tails of Rpt (Regulatory Particle ATPases) subunits for binding to specific α face pockets. The scores presented in radar plots were calculated as ((relative activation by the [x] and Rpt tail)-(theoretical sum of activation by [x] and Rpt tail))/(theoretical sum of activation by [x] and Rpt tail), where [x] represent any TAT peptide. […] The positive scores for combinations of selected compounds with Rpt5 or Rpt6 tails indicated a presumed synergy in activation of the core. Average scores derived from three to six experiments are presented. The competition effects were statistically significant (at least p < 0.05) for Rpt3 peptide and (1) and (8), as well as for Rpt2 peptide and (6).
Human housekeeping core (20S) proteasome purified from erythrocytes was purchased from Boston Biochem, Inc. (Cambridge, MA) or from Enzo Life Sciences, Inc. (Farmingdale, NY). Multiple batches of the proteasomes were used and performed reproducibly. The stock proteasome was diluted to 0.2 mg/mL working solution in “dilution buffer” (50 mM Tris/HCl, pH 8, 20% glycerol). The following model peptide substrates, all releasing fluorescent 7-amino-4-methylcoumarin (AMC) reporter group after cleavage, were used: succinyl-LeuLeuValTyr-AMC (for the ChT-L peptidase; SucLLVY-AMC; Bachem Bioscience Inc., Philadelphia, PA), butoxycarbonyl-LeuArgArg-AMC (T-L; Bachem Bioscience Inc., Philadelphia, PA) and carbobenzoxy- LeuLeuGlu-AMC (PGPH; Enzo Life Sciences Inc., Farmingdale, NY). The substrates were used at concentration of 50 μM (ChT-L) or 100 μM (T-L, PGPH). Free AMC (Sigma-Aldrich, St. Louis, MO) was used as the standard. The C-terminal peptides derived from Rpt2, Rpt3, Rpt5 and Rpt6 were synthesized (standard solid-phase peptide chemistry) and purified to at least 98% purity by GenScript (Piscataway, NJ). The TAT peptides, Rpt peptides (except Rpt6) and the peptide substrates were dissolved in anhydrous dimethylsulfoxide (DMSO; Sigma-Aldrich, St. Louis, MO) and such stock solutions were stored at −20 °C. The total concentration of DMSO in final reaction mixtures never exceeded 3% (vol/vol). The Trp (tryptophan) -containing Rpt6 peptide was dissolved in ultrapure water and stored at −20 °C, protected from light. […]

[3] = target: T1, human latent 20S core proteasome, chymotrypsin-like (ChT-L) activity (Homo sapiens, UniProt P25787+P60900); assay: ChT-L peptidase activity of latent 20S proteasome (Suc-LLVY-AMC); format: biochemical; conditions: for Max Activation Fold ± SE: purified latent 20S, Tris/HCl pH 8, 50 μM Suc-LLVY-AMC, 37 °C, from fitted response curves, SEM
T1 construct: Human housekeeping core (20S) proteasome purified from erythrocytes; purchased Boston Biochem, Inc. or Enzo Life Sciences, Inc; host or cells: human erythrocytes (natural source)
Description: The stock proteasome was diluted to 0.2 mg/mL working solution in “dilution buffer” (50 mM Tris/HCl, pH 8, 20% glycerol). […] The substrates were used at concentration of 50 μM (ChT-L) or 100 μM (T-L, PGPH). […] The total concentration of DMSO in final reaction mixtures never exceeded 3% (vol/vol). […] The reaction was carried out in 96-well plates, in 100 μL of reaction mixture that consisted of 45 mM Tris/HCl, pH 8, 100 mM KCl, 1 mM EDTA (reaction buffer) and a fluorogenic peptide substrate, to which 200 ng (nearly […]) of proteasome were added. […] The proteasome was preincubated with a substrate for 10 min at room temperature, then 1 μL of DMSO or a desired concentration of a TAT peptide in 1 μL of DMSO were added. […] To test the competition with Rpt derived peptides, the Rpt peptide (1 μM) was added before the TAT peptide to the reaction mixture. The reaction rates were calculated from a linear segment of kinetic curves constructed from measurements in 1-min intervals.
A two-tailed t-test was applied to compare the means. The comparisons were allowing for unequal variances with a Welch correction. Abundance of proteasome conformers was compared with the chi squared test and two-sample proportion test. A significance level was set at 0.05. […] Reaction rates were calculated from a smoothed linear segment of kinetic traces using OriginPro 2019. Response curves (activity vs. compound concentration) were fitted with a nonlinear fitting application of OriginPro 2019. The AC50 and maximum activation fold was calculated based on the equations implemented to fit the response curves.

Compound	Proteasome ChT-L activity in lysates of treated cells versus control lysates (in words) ([1]; SK-N-SH cells, 1 µM peptide, 24 h, 1 μg lysate, 50 μM Suc-LLVY-AMC, n = 3–4)	Competition with Rpt tail peptides (in words, from radar plot scores) [2]	Enhanced (synergistic) activation with Rpt tail peptides (in words) [2]	Max Activation Fold ± SE [3] [fold]	Ability to activate ChT-L activity of latent 20S (in words) ([3]; titration, latent human 20S, Suc-LLVY-AMC, n = 3–8)	Abolition of ChT-L activity in cell lysates ([1]; 1 µM bortezomib added to lysates from control and TAT-exposed SK-N-SH cells) [%]
N=C(N)NCCC[C@H](NC(=O)CN)C(=O)N[C@@H](CCCCN)C(=O)N[C@@H](CCCCN)C(=O)N[C@@H](CCCNC(=N)N)C(=O)N[C@@H](CCCNC(=N)N)C(=O)N[C@@H](CCC(N)=O)C(=O)N[C@@H](CCCNC(=N)N)C(=O)N[C@@H](CCCNC(=N)N)C(=O)N[C@@H](CCCNC(=N)N)C(=O)N1CCC[C@H]1C(=O)N[C@@H](CO)C(=O)O [(1)]	lack of significant activation	added a weakly negative score for the Rpt2 tail to the presumed major competitor Rpt3	enhanced activation in the presence of one of Rpt tails, namely Rpt5 or Rpt6			
N=C(N)NCCC[C@H](NC(=O)CN)C(=O)N[C@@H](CCCCN)C(=O)N1Cc2ccccc2C[C@H]1C(=O)N1[C@H](C(=O)N[C@@H](CCCNC(=N)N)C(=O)N[C@@H](CCC(N)=O)C(=O)N2Cc3ccccc3C[C@H]2C(=O)N2[C@@H](C(=O)N[C@@H](CCCNC(=N)N)C(=O)N3CCC[C@H]3C(=O)N[C@@H](CO)C(=O)O)C[C@H]3CCCC[C@H]32)C[C@@H]2CCCC[C@@H]21 [(2)] (H-GRK[Tic][Oic]RQ[Tic][dOic]RPS-OH; N-terminus and C-terminus assumed)		competing with Rpt2, Rpt3, and Rpt5 tails	synergy was especially pronounced for the Rpt6-(2) pair	1.5 ± 0.26	very poor activator	
N=C(N)NCCC[C@H](NC(=O)CN)C(=O)N[C@@H](CCCCN)C(=O)N1Cc2ccccc2C[C@H]1C(=O)N1[C@H](C(=O)N[C@@H](CCCNC(=N)N)C(=O)N[C@@H](CCC(N)=O)C(=O)N[C@@H](CCCNC(=N)N)C(=O)N[C@@H](CCCNC(=N)N)C(=O)N[C@@H](CCCNC(=N)N)C(=O)N2CCC[C@H]2C(=O)N[C@@H](CO)C(=O)O)C[C@@H]2CCCC[C@@H]21 [(3)] (H-GRK[Tic][Oic]RQRRRPS-OH; N-terminus and C-terminus assumed)				3.3 ± 0.23		
NCCCC[C@H](NC(=O)[C@H](CCCCN)NC(=O)[C@H](CCCCN)NC(=O)[C@@H]1C[C@@H]2CCCC[C@@H]2N1C(=O)[C@@H]1Cc2ccccc2CN1C(=O)[C@H](CCCCN)NC(=O)[C@H](CCCCN)NC(=O)[C@@H](N)CCCCN)C(=O)O [(6)]		Rpt2 tail was a major competitor	enhanced activation in the presence of one of Rpt tails, namely Rpt5 or Rpt6			
CC(C)C[C@H](NC(=O)[C@H](Cc1ccccc1)NC(=O)c1cnccn1)B(O)O [bortezomib, reference compound]						> 85
